Assay results taken from paper PMC5696490, “Modelling foetal exposure to maternal smoking using hepatoblasts from pluripotent stem cells” (Archives of Toxicology, 2017).

Key:
CYP3A = CYP3A activity (pGlo) in donor two hESC-derived hepatocytes; settings: human two
Protocol: (§1) H9 and Man12 human embryonic stem cells (hESCs) identity was confirmed using short tandem repeat typing. hESCs were cultured and differentiated as previously described (Cameron et al. [2015]). Maintenance of hESCs was performed on pre-coated laminin 521 (Biolaminin) in mTeSR1 ([…] Technologies) in a humidified 37 °C, 5% CO2 incubator. For differentiation, hESCs were plated onto a pre-coated blend of laminins 521 and 111 (at a 1:3 ratio). Differentiation was initiated at 40% confluence by replacing serum-free medium with endoderm differentiation medium: RPMI 1640 containing 1× B27 (Life Technologies), 100 ng/mL Activin A (PeproTech), and 50 ng/mL Wnt3a (R&D Systems). The medium was changed every 24 h for 72 h. On day 3, endoderm differentiation medium was replaced with hepatoblast differentiation medium, and this was renewed every second day for a further 5 days. The medium consisted of knockout (KO)-DMEM (Life Technologies), Serum replacement (Life Technologies), 0.5% Glutamax (Life Technologies), 1% non-essential amino acids (Life Technologies), 0.2% β-mercaptoethanol (Life Technologies), and 1% DMSO (Sigma). On day 8, differentiating cells were cultured in the hepatocyte maturation medium HepatoZYME (Life Technologies) containing 1% Glutamax (Life Technologies), supplemented with 10 ng/mL hepatocyte growth factor (PeproTech) and 20 ng/mL oncostatin M (PeproTech). On day 10 maturation medium was replaced with HepatoZYME supplemented with and without smoking derivatives (Sigma-Aldrich) for a further 8 days, with media replaced every 48 h.
CYP3A and CYP1A2 activity was measured in hepatocytes at Day 18 using pGlo technology (Promega) in accordance with the manufacturer’s instructions. CYP activity was expressed as either relative light units (RLUs) per milliliter of medium per milligram of protein (determined by the BCA assay, Pierce), or as a percentage of CYP activity normalised to the vehicle control. Levels of significance were measured by Student’s t test. The experiments are representative of five biological replicates.
(§2) Hepatocyte specification and maturation was performed in male and female hESCs lines in the presence or absence to smoking components. Cotinine at a concentration range of 1 to 300 nM, chrysene at a concentration range of 10 nM to 50 μM, fluorene at a concentration range of 10 nM to 100 μM, naphthalene at a concentration range of 10nm to 1 mM and phenanthrene, at a concentration range of 10 nM to 500 μM were used. Following 8 days exposure, cell health was determined by ATP production and caspase activity. Following this cell function was determined measuring CYP P450 3A and 1A2 activity. In order to measure the effectiveness of each component of cigarette smoke to inhibiting activity we used the half maximal inhibitory concentration (IC50).

Caspase 3/7 [1] = test: Caspase 3/7 activity (pGlo) in donor two hESC-derived hepatocytes; type: cell-based, human; settings: concentration of peak caspase 3/7 activity, 8 days exposure
Protocol: as §1
(§3) Cell health was assessed measuring ATP production and Caspase 3/7 activity at Day 18 employing pGlo technology (Promega) in accordance with the manufacturer’s instructions. Levels of expression of both markers were expressed as percentage of relative light units (RLUs) per milliliter of medium and normalised to the vehicle control. Levels of significance were measured by Student’s t test. The experiments are representative of five biological replicates.
as §2

Caspase 3/7 [2] = test: Caspase 3/7 activity (pGlo) in donor one hESC-derived hepatocytes; type: cell-based, human; settings: concentration of peak caspase 3/7 activity, 8 days exposure
Protocol: as §1, §3, §2

CYP1A2 = target: T1, CYP1A2 (Homo sapiens, UniProt P05177); test: CYP1A2 activity (pGlo) in donor one hESC-derived hepatocytes; type: cell-based; settings: female hepatocytes, 8 days exposure
T1 sequence (P05177 2-516): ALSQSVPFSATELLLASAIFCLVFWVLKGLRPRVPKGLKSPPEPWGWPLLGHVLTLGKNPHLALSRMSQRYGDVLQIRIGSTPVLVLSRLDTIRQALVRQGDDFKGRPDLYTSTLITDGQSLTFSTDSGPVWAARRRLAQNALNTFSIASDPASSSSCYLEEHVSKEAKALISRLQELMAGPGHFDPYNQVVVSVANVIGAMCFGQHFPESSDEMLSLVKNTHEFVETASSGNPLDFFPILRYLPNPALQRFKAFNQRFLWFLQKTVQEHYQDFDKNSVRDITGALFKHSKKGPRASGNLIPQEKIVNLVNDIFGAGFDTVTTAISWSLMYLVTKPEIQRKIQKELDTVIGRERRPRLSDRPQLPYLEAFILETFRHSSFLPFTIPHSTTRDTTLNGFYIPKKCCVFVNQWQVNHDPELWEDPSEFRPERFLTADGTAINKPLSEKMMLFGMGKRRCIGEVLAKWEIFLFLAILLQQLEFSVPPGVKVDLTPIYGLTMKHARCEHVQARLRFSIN
Description: The experiments are representative of five biological replicates.

SMILES | IC50 at 8 days (CYP3A) [µM] | Caspase 3/7 peak activity Male (Caspase 3/7 [1]) [µM] | Caspase 3/7 peak activity Female (Caspase 3/7 [2]) [µM] | IC50 CYP1A2 person one (CYP1A2) | IC50 CYP1A2 person one (CYP1A2; listed as naphthalene)
c1ccc2c(c1)ccc1c3ccccc3ccc21 [Chrysene] | 10 | 5 | 25 | – | –
CN1C(=O)CC[C@H]1c1cccnc1 [Cotinine] | 0.05 | 0.1 | 0.1 | – | –
c1ccc2c(c1)Cc1ccccc1-2 [Fluorene] | 25 | 100 | >100 | – | –
c1ccc2ccccc2c1 [Naphthalene] | 68 | 1000 | 50 | Induced activity | induced CYP1A2 activity
c1ccc2c(c1)ccc1ccccc12 [Phenanthrene] | 58 | 10 | >500 | – | –
